Experimental data taken from patent US5648360A, “Pentacyclic antihistamines” (Schering Corporation, priority 1994, dated 1997).

What follows are compounds tested on PAF-induced platelet aggregation (assay: In vitro PAF antagonism assay (inhibition of PAF-induced platelet aggregation in platelet-rich plasma)). Conditions: at 50 μM, human PRP, PAF 1-5×10^-8 M.
Format: cell-based
Experimental: In vitro Assay: Preparation of platelet-rich plasma (PRP): Human blood (50 ml) is collected from healthy male donors in an anticoagulant solution (5 ml) containing sodium citrate (3.8%) and dextrose (2%). Blood is centrifuged at 110 x g for 15 min. and the supematant (PRP) carefully transferred into a polypropylene tube. Platelet-poor-plasma (PPP) is prepared by centrifuging PRP at 12,000 x g for 2 min. (Beckman Microfuge B). PRP is used within 3 hours of drawing the blood.
Platelet Aggregation Assay: When an aggregating agent such as PAF is added to PRP, platelets aggregate. The aggregation assays are performed using a dual-channel aggregometer (Model 440, Chrono-Log Corp., Havertown, Pa.). PRP (0.45 ml) in aggregometer cuvettes is continually stirred (37° C.). Solutions of test compounds or vehicle are added to the PRP, and after incubation for 2 min., 10-15 μl aliquots of PAF solution are added so as to achieve a final concentration of 1-5×10^-8 M. Incubations are continued until the increase in light transmission reaches a maximum (usually 2 min). Values for inhibition are calculated by comparing maximal aggregation obtained in the absence and the presence of the compound. For each experiment, a standard PAF antagonist such as alprazolam is used as a positive internal control. The inhibitory concentration (IC50) is the concentration of compound in micromoles at which 50% of the aggregation is inhibited, as measured by the light transmission through each sample of PRP as compared to PPP.
Work on `CC(=O)N1CC[C@H]2C(=O)c3cc(Cl)cc4c3[C@H](c3ncccc3CC4)[C@H]2C1` (relative stereo) [Compound 6A] yielded an inhibition at 50 µM of 33%. In the case of `CC(=O)N1CC[C@@H]2C(=O)c3cc(Cl)cc4c3[C@H](c3ncccc3CC4)[C@H]2C1` (relative stereo) [Compound 6B], the inhibition at 50 µM is reported as 49%. Compound `CC(=O)N1CC[C@@H]2[C@H]3c4ncccc4CCc4cc(Cl)cc(c43)C(=O)[C@@H]2C1` (relative stereo) [Compound 10A] has an inhibition at 50 µM of 15%. Work on `CN1CC[C@@H]2[C@H]3c4ncccc4CCc4cc(Cl)cc(c43)C(=O)[C@@H]2C1` (relative stereo) [Compound 11A] yielded an inhibition at 50 µM of 47%. `CN1CC[C@@H]2[C@H]3c4ncccc4CCc4cc(Cl)cc(c43)C(=O)[C@H]2C1` (relative stereo) [Compound 11B] gave an inhibition at 50 µM of 4%. In the case of `CC(=O)N1CC[C@H]2C(=Cc3cc(Cl)cc4c3[C@@H]2c2ncccc2CC4)C1` (relative stereo) [Compound 13], the inhibition at 50 µM is reported as 23%.

Same assay, conditions: human PRP, PAF 1-5×10^-8 M
`CC(=O)N1CC[C@H]2[C@H](Cc3cc(Cl)cc4c3[C@@H]2c2ncccc2CC4)C1` (relative stereo) [Compound 14A] gave an IC50 of about 3000 µM. In the case of `CC(=O)N1CC[C@H]2[C@@H](Cc3cc(Cl)cc4c3[C@@H]2c2ncccc2CC4)C1` (relative stereo) [Compound 14B], the IC50 is reported as about 300 µM. `CN1CC[C@H]2C(=Cc3cc(Cl)cc4c3[C@@H]2c2ncccc2CC4)C1` (relative stereo) [Compound 16] was tested, and the IC50 was about 5.5 µM. Work on `CN1CC[C@H]2[C@@H](Cc3cc(Cl)cc4c3[C@@H]2c2ncccc2CC4)C1` (relative stereo) [Compound 17, 7-chloro-2,3,4,4a,5,9,10,14b,14c-decahydro-3-methylpyrido[2",3":7',6']-cyclohepta[1',2',3',:4,5]naphtho[2,3-c]pyridine] yielded an IC50 of about 38 µM. With `O=C(c1cc[n+]([O-])cc1)N1CC[C@H]2[C@@H](Cc3cc(Cl)cc4c3[C@@H]2c2ncccc2CC4)C1` (relative stereo) [Compound 20] the IC50 was about 2.8 µM.

The compounds below were run against T1, H1 (Cavia porcellus, UniProt P31389) (assay: In vitro H1 antihistamine activity assay (inhibition of histamine spasmogenic activity in isolated ileal segments)). Conditions: guinea pig ileum, antagonist 5 min before histamine curve; read-out: dissociation constant (Ki).
T1 construct: Ileal segments were removed from male Hartley guinea pigs; from tissue; host or cells: isolated ileal segments of male Hartley guinea pigs
T1 sequence (P31389 whole entry): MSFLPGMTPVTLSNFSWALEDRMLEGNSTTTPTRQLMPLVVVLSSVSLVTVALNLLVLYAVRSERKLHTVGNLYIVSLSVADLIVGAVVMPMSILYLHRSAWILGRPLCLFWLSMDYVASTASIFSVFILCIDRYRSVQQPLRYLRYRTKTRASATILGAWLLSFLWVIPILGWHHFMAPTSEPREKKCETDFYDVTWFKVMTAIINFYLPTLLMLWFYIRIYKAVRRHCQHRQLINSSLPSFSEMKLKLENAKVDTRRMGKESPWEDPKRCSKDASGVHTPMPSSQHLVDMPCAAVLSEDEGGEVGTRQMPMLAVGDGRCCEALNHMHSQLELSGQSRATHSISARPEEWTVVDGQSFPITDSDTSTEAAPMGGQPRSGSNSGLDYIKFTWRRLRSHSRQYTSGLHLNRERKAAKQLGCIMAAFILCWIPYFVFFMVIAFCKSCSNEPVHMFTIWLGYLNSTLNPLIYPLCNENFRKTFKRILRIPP
Set-up: species or system male Hartley guinea pigs
Experimental: In vitro assay: Ileal segments were removed from male Hartley guinea pigs (250-350 g) and suspended in 10 ml perfusion baths containing Tyrode's solution. The buffer was equilibrated with 95% O2 and 5% CO2 and maintained at a temperature of 37° C. The tissues were adjusted to 0.5-1 g tension and allowed to equilibrate for 30 min. All responses were recorded isometrically by means of a Grasse smooth muscle transducer and electronic recorder. Drugs were tested for their ability to inhibit the spasmogenic activity of histamine dihydrochloride. Two cumulative control log concentration-response curves for histamine (10^-7 -10^-5 M) were generated for each tissue. Antagonists were added to the bath and allowed to act for 5 min. before another histamine curve was generated.
Drugs were evaluated for their ability to inhibit histamine and thereby shift the response curve to the right. […] These values were used to determine relative potency.
With `CN1CC[C@H]2[C@@H](Cc3cc(Cl)cc4c3[C@@H]2c2ncccc2CC4)C1` (relative stereo) [Compound 17, 7-chloro-2,3,4,4a,5,9,10,14b,14c-decahydro-3-methylpyrido[2",3":7',6']-cyclohepta[1',2',3',:4,5]naphtho[2,3-c]pyridine] the Ki was 0.001 µM.

Same assay, conditions: guinea pig ileum, antagonist 5 min before histamine curve; read-out: pA2 (converted)
`CN1CC[C@H]2[C@@H](Cc3cc(Cl)cc4c3[C@@H]2c2ncccc2CC4)C1` (relative stereo) [Compound 17, 7-chloro-2,3,4,4a,5,9,10,14b,14c-decahydro-3-methylpyrido[2",3":7',6']-cyclohepta[1',2',3',:4,5]naphtho[2,3-c]pyridine] showed a Kb of 0.00141 µM.
